# Measurements published in US11866431B2, “Bicyclic compounds” (Vivace Therapeutics, Inc., priority 2018, dated 2024).
# Test system: 8XTBD luciferase reporter (YAP reporter) in HEK293T cells
# Assay: YAP Reporter Assay
# Type: cell-based
# Conditions: Homo sapiens, HEK-293T, 24 h, read-out: Firefly Luciferase IC50 (μM)
# How it was run: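 Dual-luciferase read-out after 24 h compound exposure at 37° C, 5% CO2; IC50 and maximum inhibition given separately for 8XTBD-firefly and TK-renilla signals. Stable HEK293T reporter cells, 3×10^3/well, received 10-point 1:3 series starting 3 μM final, in quadruplicate.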
row,Compound,IC50
1,"CC(C)NC(=O)c1ccc2c(-c3ccc(C(F)(F)F)cc3)cc3sc(N)nc3c2c1 [Compound 63, 2-amino-N-isopropyl-5-(4-(trifluoromethyl)phenyl)naphtho[1,2-d]thiazole-8-carboxamide]",< 0.1 µM
2,"CCOc1cc(-c2ccc(C(F)(F)F)cc2)c2ncc(C(=O)NC(C)C)cc2c1 [Compound 80, 6-ethoxy-N-isopropyl-8-(4-(trifluoromethyl)phenyl)quinoline-3-carboxamide]",< 0.1 µM

# Same assay, conditions: Homo sapiens, HEK-293T; HEK293T cells stably transfected with 8XTBD luciferase reporter and pRLTK; 24-hr incubation; top concentration 3 μM; read-out: Firefly Luciferase IC50
row,Compound,IC50
1,"CC(C)NC(=O)c1cnc2c(-c3ccc(C(F)(F)F)cc3)cc(OC3CC3)cc2c1 [Compound 116, 6-cyclopropoxy-N-isopropyl-8-(4-(trifluoromethyl)phenyl)quinoline-3-carboxamide]",< 0.1 µM
2,"CC(C)NC(=O)c1ccc2c(-c3ccc(C(F)(F)F)cc3)cn(C)c(=O)c2c1 [Compound 26, N-isopropyl-2-methyl-1-oxo-4-(4-(trifluoromethyl)phenyl)-1,2-dihydroisoquinoline-7-carboxamide]",< 0.1 µM
3,"N#C/C=C\CCNC(=O)c1ccc2c(-c3ccc(C(F)(F)F)cc3)cccc2c1 [Compound 216, N—[(Z)-4-cyanobut-3-enyl]-5-[4-(trifluoromethyl)phenyl]naphthalene-2-carboxamide]",0.1 to 1 µM
4,"C[C@@H](NC(=O)c1cnc2c(-c3ccc(C(F)(F)F)cc3)cccc2c1)C1(O)CNC1 [Compound 141, (R)—N-(1-(3-hydroxyazetidin-3-yl)ethyl)-8-(4-(trifluoromethyl)phenyl)quinoline-3-carboxamide]",1 to 3 µM
5,"O=C(NCCSSCCNC(=O)c1ccc2c(-c3ccc(C(F)(F)F)cc3)cccc2c1)c1ccc2c(-c3ccc(C(F)(F)F)cc3)cccc2c1 [Compound 115, N,N′-(disulfanediylbis(ethane-2,1-diyl))bis(5-(4-(trifluoromethyl)phenyl)-2-naphthamide)]",1 to 3 µM
6,"C[C@@H](NC(=O)c1ccc2c(-c3ccc(C(F)(F)F)cc3)cccc2c1)c1cc(N(C)C)ccn1 [Compound 223, (R)—N-(1-(4-(dimethylamino)pyridin-2-yl)ethyl)-5-(4-(trifluoromethyl)phenyl)-2-naphthamide]",0.1 to 1 µM
7,"CC(C)NC(=O)c1ccc2c(-c3ccc(C(F)(F)F)cc3)ccc(C(F)(F)F)c2c1 [Compound 87, N-isopropyl-8-(trifluoromethyl)-5-(4-(trifluoromethyl)phenyl)-2-naphthamide]",0.1 to 1 µM
8,"CC(C)NC(=O)c1ccc2c(-c3ccc(C(F)(F)F)cc3)cncc2c1 [Compound 25, N-isopropyl-4-[4-(trifluoromethyl)phenyl]isoquinoline-7-carboxamide]",0.1 to 1 µM
9,"CC(C)NC(=O)c1ccc2c(-c3ccc(C(F)(F)F)cc3)cc(S(C)(=O)=O)cc2c1 [Compound 46, N-isopropyl-7-methylsulfonyl-5-[4-(trifluoromethyl)phenyl]naphthalene-2-carboxamide]",< 0.1 µM
10,"CC(C)NC(=O)c1ccc2c(-c3ccc(C(F)(F)F)cc3)ccc(C3CC3)c2c1 [Compound 22, 8-cyclopropyl-N-isopropyl-5-(4-(trifluoromethyl)phenyl)-2-naphthamide]",< 0.1 µM
11,"COc1ccc(-c2ccc(C(F)(F)F)cc2)c2ccc(C(=O)NC(C)C)cc12 [Compound 37, N-isopropyl-8-methoxy-5-[4-(trifluoromethyl)phenyl]naphthalene-2-carboxamide]",< 0.1 µM
12,"C[C@@H](NC(=O)c1ccc2c(-c3ccc(C(F)(F)F)cc3)cccc2c1)c1cn(C)cn1 [Compound 196, (R)—N-(1-(1-methyl-1H-imidazol-4-yl)ethyl)-5-(4-(trifluoromethyl)phenyl)-2-naphthamide]",0.1 to 1 µM
13,"CC#C[C@H](C)NC(=O)c1ccc2c(-c3ccc(C(F)(F)F)cc3)cccc2c1 [Compound 272, (S)—N-(pent-3-yn-2-yl)-5-(4-(trifluoromethyl)phenyl)-2-naphthamide]",< 0.1 µM
14,"N#CCNC(=O)c1ccc2c(-c3ccc(C(F)(F)F)cc3)cccc2c1 [Compound 113, N-(cyanomethyl)-5-(4-(trifluoromethyl)phenyl)-2-naphthamide]",< 0.1 µM
15,"O=C(NCCCCO)c1ccc2c(-c3ccc(C(F)(F)F)cc3)cccc2c1 [Compound 255, N-(4-hydroxybutyl)-5-(4-(trifluoromethyl)phenyl)-2-naphthamide]",0.1 to 1 µM
16,"CC(C)NC(=O)c1cnc2c(-c3ccc(C(F)(F)F)cc3)cccc2n1 [Compound 268, N-Isopropyl-5-(4-(trifluoromethyl)phenyl)quinoxaline-2-carboxamide]",0.1 to 1 µM
17,"C[C@H](NC(=O)c1ccc2c(-c3ccc(C(F)(F)F)cc3)cccc2c1)C(N)=O [Compound 259, (S)—N-(1-amino-1-oxopropan-2-yl)-5-(4-(trifluoromethyl)phenyl)-2-naphthamide]",0.1 to 1 µM
18,"C[C@@H](NC(=O)c1cnc2c(-c3ccc(C(F)(F)F)cc3)cccc2c1)C1CN(C)C1 [Compound 156, N-[(1R)-1-(1-methylazetidin-3-yl)ethyl]-8-[4-(trifluoromethyl)phenyl]quinoline-3-carboxamide]",0.1 to 1 µM
19,"C[C@H](CCO)NC(=O)c1ccc2c(-c3ccc(C(F)(F)F)cc3)cccc2c1 [Compound 167, N-[(1R)-3-hydroxy-1-methyl-propyl]-5-[4-(trifluoromethyl)phenyl]naphthalene-2-carboxamide]",< 0.1 µM

row,Compound,IC50
1,"CC(C)NC(=O)c1ccc2c(-c3ccc(C(F)(F)F)cc3)nccc2c1 [Compound 11, N-isopropyl-1-[4-(trifluoromethyl)phenyl]isoquinoline-6-carboxamide]",< 0.1 µM
2,"C[C@H](NC(=O)c1ccc2c(-c3ccc(C(F)(F)F)cc3)cccc2c1)c1cc(N)ccn1 [Compound 214, (S)—N-(1-(4-aminopyridin-2-yl)ethyl)-5-(4-(trifluoromethyl)phenyl)-2-naphthamide]",1 to 3 µM
3,"CCc1cc(-c2ccc(C(F)(F)F)cc2)c2ccc(C(=O)NC(C)C)cc2c1 [Compound 47, 7-ethyl-N-isopropyl-5-(4-(trifluoromethyl)phenyl)-2-naphthamide]",< 0.1 µM
4,"COc1cc(-c2ccc(C(F)(F)F)cc2)c2ccc(C(=O)O)cc2c1 [Compound 322, 7-methoxy-5-(4-(trifluoromethyl)phenyl)-2-naphthoic Acid]",< 0.1 µM
5,"O=C(NC1(CO)CC1)c1ccc2c(-c3ccc(C(F)(F)F)cc3)cccc2c1 [Compound 257, N-(1-(hydroxymethyl)cyclopropyl)-5-(4-(trifluoromethyl)phenyl)-2-naphthamide]",< 0.1 µM
6,"O=C(NC(CO)c1ccccn1)c1ccc2c(-c3ccc(C(F)(F)F)cc3)cccc2c1 (stereo not drawn) [Compound 110, N-(2-hydroxy-1-(pyridin-2-yl)ethyl)-5-(4-(trifluoromethyl)phenyl)-2-naphthamide]",< 0.1 µM
7,"C[C@@H](NC(=O)c1cnc2c(-c3ccc(C(F)(F)F)cc3)cccc2c1)C1CN(CCF)C1 [Compound 318, (R)—N-(1-(1-(2-fluoroethyl)azetidin-3-yl)ethyl)-8-(4-(trifluoromethyl)phenyl)quinoline-3-carboxamide]",0.1 to 1 µM
8,"O=C(O)c1ccc2c(-c3ccc(S(F)(F)(F)(F)F)cc3)cccc2c1 [Compound 329, 5-[4-(pentafluoro-sulfanyl)phenyl]naphthalene-2-carboxylic Acid]",< 0.1 µM
9,"C[C@H](NC(=O)c1ccc2c(-c3ccc(C(F)(F)F)cc3)cccc2c1)c1nnn(C)n1 [Compound 278, (S)—N-(1-(2-methyl-2H-tetrazol-5-yl)ethyl)-5-(4-(trifluoromethyl)phenyl)-2-naphthamide]",0.1 to 1 µM
10,"COCCC(=O)NCCOCCOCCNC(=O)c1ccc2c(-c3ccc(C(F)(F)F)cc3)cccc2c1 [Compound 77, N-(5-oxo-2,9,12-trioxa-6-azatetradecan-14-yl)-5-(4-(trifluoromethyl)phenyl)-2-naphthamide]",0.1 to 1 µM
11,"C[C@@H](NC(=O)c1ccc2c(-c3ccc(C(F)(F)F)cc3)cccc2c1)c1ncc[nH]1 [Compound 242, (R)—N-(1-(1H-imidazol-2-yl)ethyl)-5-(4-(trifluoromethyl)phenyl)-2-naphthamide]",0.1 to 1 µM
12,"CCc1ccc(-c2ccc(C(F)(F)F)cc2)c2ccc(C(=O)NC(C)C)cc12 [Compound 21, 8-ethyl-N-isopropyl-5-[4-(trifluoromethyl)phenyl]naphthalene-2-carboxamide]",< 0.1 µM
13,"CC(C)NC(=O)c1ccc2c(-c3ccc(C(F)(F)F)cc3)cc3ncnn3c2c1 [Compound 300, N-Isopropyl-5-(4-(trifluoromethyl)phenyl)-[1,2,4]triazolo[1,5-a]quinoline-8-carboxamide]",0.1 to 1 µM
14,"O=C(NCc1ccccc1)c1ccc2c(-c3ccc(C(F)(F)F)cc3)cccc2c1 [Compound 241, N-benzyl-5-(4-(trifluoromethyl)phenyl)-2-naphthamide]",< 0.1 µM
15,"O=C(NCCCCCO)c1ccc2c(-c3ccc(C(F)(F)F)cc3)cccc2c1 [Compound 238, N-(5-hydroxypentyl)-5-[4-(trifluoromethyl)phenyl]naphthalene-2-carboxamide]",0.1 to 1 µM
16,"C[C@H](NC(=O)c1ccc2c(-c3ccc(C(F)(F)F)cc3)cccc2c1)c1cn(C)cn1 [Compound 195, (S)—N-(1-(1-methyl-1H-imidazol-4-yl)ethyl)-5-(4-(trifluoromethyl)phenyl)-2-naphthamide]",< 0.1 µM
17,"CNCC(C)NC(=O)c1ccc2c(-c3ccc(C(F)(F)F)cc3)cccc2c1 (stereo not drawn) [Compound 92, N-(1-(methylamino)propan-2-yl)-5-(4-(trifluoromethyl)phenyl)-2-naphthamide]",0.1 to 1 µM
18,"C#Cc1ccc(-c2ccc(C(F)(F)F)cc2)c2ccc(C(=O)NC(C)C)cc12 [Compound 20, 8-ethynyl-N-isopropyl-5-[4-(trifluoromethyl)phenyl]naphthalene-2-carboxamide]",< 0.1 µM
